Assay results published in US10941379B2, “Microbial system for biosynthesis of natural and engineered products coupled to in situ extraction in supercritical CO2” (Massachusetts Institute of Technology, priority 2016, dated 2021).

Tests used:
Format in all cases: cell-based, Bacillus megaterium
[1] = tested on: B. megaterium SR7; experiment: SR7 antibiotic sensitivity in LB (OD600 vs unamended control); conditions: for % Control: (OD600 AB/OD600 Control)*100 in LB, average n = 2, 24 hours, 37° C.; for Sensitivity: LB
Protocol: To help guide optimization of growth conditions for strain SR7, physiological tests were conducted under aerobic conditions. To determine tolerance for pH, salinity and bicarbonate, high throughput culturing was done in 96 well plates and scored for growth by OD600 using a microplate reader (BioTek Synergy 2; BioTek; Winooski, Vt.). 200 uL LB solutions/well were inoculated in triplicate with 10^4 spores/ml (based on SR7 spore stock filter counts) and incubated on a plate rocker at 37° C. with unamended positive and cell-free negative LB controls. Tests for pH tolerance (pH 2-10) were conducted in LB medium amended with HCl or NaOH. The effect of salinity and bicarbonate on growth was determined by adding NaCl (1-10%) and NaHCO3 (0.1-0.5M), respectively, to LB media. Optimal SR7 growth temperature was tested by inoculating 10^4 spores/ml in 5 ml of LB in triplicate at temperatures of 9-55° C. Cultures and cell-free negative controls were incubated without shaking, with subsamples taken for periodic OD600 measurements. SR7 antibiotic sensitivity was determined by supplementing 5 ml LB with ampicillin (5-50 μg/ml), chloramphenicol (3.5-35 μg/ml), kanamycin (5-50 μg/ml), spectinomycin (10-100 μg/ml), streptomycin (10-100 μg/ml), or tetracycline (1.5-15 μg/ml).

[2] = tested on: B. megaterium SR7; experiment: Biolog GenIII sole carbon source growth; conditions: Table 11; for Growth in carbon source Biolog plate, +Metals: trace metals-amended plate; for Growth in carbon source Biolog plate, I: unamended plate trial I; for Growth in carbon source Biolog plate, II: unamended plate trial II
Protocol: (§1) Plates were incubated at 37° C. on a plate shaker at 200 rpm and assayed for growth using NADH-dependent colorimetric changes measured by OD490 on a microplate reader (BioTek Synergy 2; BioTek; Winooski, Vt.).

[3] = tested on: B. megaterium SR7; experiment: Biolog GenIII Microplate growth sensitivity assay; conditions: for % Control: (OD490 AB/OD490 Control)*100 for Biolog, average n = 2, Biolog does not publish concentrations; for Sensitivity: Biolog, concentration not published; as to sensitivity: key: S = sensitive; R = resistant
Protocol: as §1

| Molecule | Growth in carbon source Biolog plate, +Metals [2] | Growth in carbon source Biolog plate, I [2] | Growth in carbon source Biolog plate, II [2] | other results |
| --- | --- | --- | --- | --- |
| CN[C@@H]1[C@H](O)[C@H](NC)[C@H]2O[C@@]3(O)C(=O)C[C@@H](C)O[C@H]3O[C@@H]2[C@H]1O [Spectinomycin] |  |  |  | % Control ([1]; 100 ug/mL): 47%; Sensitivity ([1]; 100 ug/mL): S/R; SR7 sensitivity to antibiotics ([1]; result in words, summary of Table 9): intermediate sensitivity |
| OC[C@H]1O[C@H](OC[C@H]2O[C@H](OC[C@H]3O[C@H](O[C@]4(CO)O[C@H](CO)[C@@H](O)[C@@H]4O)[C@H](O)[C@@H](O)[C@@H]3O)[C@H](O)[C@@H](O)[C@H]2O)[C@H](O)[C@@H](O)[C@H]1O [Stachyose] | + | + | + |  |
| [H]/N=C(/N)N[C@H]1[C@H](O)[C@@H](O)[C@H](O[C@@H]2O[C@@H](C)[C@](O)(C=O)[C@H]2O[C@@H]2O[C@@H](CO)[C@H](O)[C@@H](O)[C@@H]2NC)[C@@H](N/C(N)=N\[H])[C@@H]1O [Streptomycin] |  |  |  | % Control ([1]; 10 ug/mL): 10%; Sensitivity ([1]; 10 ug/mL): S |
| CN(C)[C@@H]1C(O)=C(C(N)=O)C(=O)[C@@]2(O)C(O)=C3C(=O)c4c(O)cccc4[C@@](C)(O)[C@H]3C[C@@H]12 [Tetracycline] |  |  |  | % Control ([1]; 1.5 ug/mL): 11%; Sensitivity ([1]; 1.5 ug/mL): S |
| CO[C@H]1C[C@H](O[C@H]2[C@H](C)[C@@H](O[C@@H]3O[C@H](C)C[C@H](N(C)C)[C@H]3OC(C)=O)[C@@H](C)C[C@@]3(CO3)C(=O)[C@H](C)[C@@H](OC(C)=O)[C@@H](C)[C@@H](C)OC(=O)[C@@H]2C)O[C@@H](C)[C@@H]1OC(C)=O [Troleandomycin] |  |  |  | % Control [3]: 9%; Sensitivity [3]: S |
| CN[C@H](CC(C)C)C(=O)N[C@H]1C(=O)N[C@@H](CC(N)=O)C(=O)N[C@H]2C(=O)N[C@H]3C(=O)N[C@H](C(=O)N[C@H](C(=O)O)c4cc(O)cc(O)c4-c4cc3ccc4O)[C@H](O)c3ccc(c(Cl)c3)Oc3cc2cc(c3O[C@@H]2O[C@H](CO)[C@@H](O)[C@H](O)[C@H]2O[C@H]2C[C@](C)(N)[C@H](O)[C@H](C)O2)Oc2ccc(cc2Cl)[C@H]1O [Vancomycin] |  |  |  | % Control [3]: 10%; Sensitivity [3]: S |
| O[C@H]1[C@H](O)[C@@H](O)[C@H](O)[C@@H](O)[C@H]1O [myo-Inositol] | +++ | − | + |  |
| O=C(O)Cc1ccc(O)cc1 [p-Hydroxy-Phenylacetic Acid] | − | − | − |  |
| NCCCC(=O)O [Υ-Amino-Butryric Acid] | +++ | − | + |  |
| OC[C@H]1O[C@@H](O[C@H]2[C@H](O)[C@@H](O)[C@@H](O)O[C@@H]2CO)[C@H](O)[C@@H](O)[C@H]1O [α-D-Lactose] | + | + | + |  |
| CCC(O)C(=O)O (stereo not drawn) [α-Hydroxy-Butyric Acid] | − | − | − |  |
| CCC(=O)C(=O)O [α-Keto-Butyric Acid] | − | − | − |  |
| CO[C@@H]1O[C@H](CO)[C@@H](O)[C@H](O)[C@H]1O [β-Methyl-D-Glucoside] | + | − | + |  |
| D-Salicin | + | + | + |  |
| D-Turanose | +++ | + | + |  |
| Gentiobiose | + | + | + |  |
| Tween 40 | − | − | + |  |
